Data set [1] has as its system FaDu head and neck carcinoma. Description: FaDu head and neck carcinoma xenograft in SCID mice. Format: in vivo. The following applies: plasma. As to the method: In order to investigate the effect of b-AP15 on tumor growth in vivo, the compound was administered to mice bearing either a human tumor or mouse xenografts. FaDu head and neck carcinoma were chosen as a SCID mouse xenograft both as a model for a p53mut tumor and since this model is suitable for studies using circulating cell death biomarkers (30). Significant inhibition of FaDu tumor growth was observed following daily treatment with b-AP15 (treated/control tumor volume, T/C=0.4, p=<0.001). Similarly b-AP15 (day on/2 day off schedule) inhibited tumor growth in C57BL/6J mice bearing lung carcinomas (T/C=0.16, p=<0.01). […] To examine whether b-AP15 promotes tumor cell death in vivo, plasma levels of cytokeratin-18 (CK18) were analyzed. […] To investigate the ability of b-AP15 to inhibit proteasome deubiquitination in vivo, accumulation of poly-ubiquitin conjugates was analyzed by means of antibodies specific for K48 linked polyubiquitin chains. Histological analysis of treated tumors confirmed the accumulation of poly-ubiquitin conjugates. […]
Animal experiments were conducted in full accordance with Swedish governmental statutory regulations on animal welfare under permission from local ethical committees. […] All mice were monitored and weighed daily. […] After injection, tumor growth was measured daily with calipers and the tumor volume calculated by the formula L=W^2=0.44. […]

Data set [2] has as its target T1, UCHL5 (Homo sapiens, UniProt Q9Y5K5).
T1 construct: purchased Boston Biochem E-366 (19S), E-365 (26S)
As to the kind of experiment: HA-UbVS competitive active-site labelling of 19S RP or 26S proteasomes. Format: binding. The settings on record: 19S RP or 26S proteasomes incubated with b-AP15. An excerpt:
(§1) The deubiquitinating activity of the proteasome is attributed to the action of three DUBs, UCHL5, USP14 and POH1, all localized within the 19S RP 26-28. Both UCHL5 and USP14 are sensitive to N-ethylmaleimide (NEM), a general inhibitor of cysteine proteases, whereas POH1 is insensitive to inhibition by NEM but sensitive to metal chelators such as N,N,N,N-tetrakis-(2-pyridylmethyl)ethylenediamine (TPEN) (29). […] To identify specifically which DUBs were inhibited by b-AP15 treatment, competitive labelling experiments were performed using hemagglutinin tagged ubiquitin vinylsulphonone (HA-UbVS), an active site directed probe that irreversibly reacts with DUBs of the cysteine class (26).
(§2) For labelling of DUBs in cell lysates sub confluent cells were harvested by trypsinization, washed three times with PBS, and centrifuged at 1500 RPM for 5 min. Cell pellets were lysed with buffer (50 mM HEPES pH 7.4, 250 mM sucrose, 10 mM MgCl2, 2 mM ATP, 1 mM DTT) on ice for 15 min. Debris was removed by centrifugation and 25 μg of protein was labelled with 1 μM HA-UbVS for 30 min at 37° C. Samples were resolved by SDS-PAGE and analyzed by immunoblotting with indicated antibodies.
(§3) 19S RP were pre-treated with DMSO, NEM (10 mM) b-AP15 (50 μM) (FIG. 3a) or TPEN (250 μM) (FIG. 3b) followed by addition of Ub-GFP and immunoblotting with anti-GFP antibodies. […]

Data set [3] deals with T2, USP14 (Homo sapiens, UniProt P54578).
T2 construct: purchased Boston Biochem E-366 (19S), E-365 (26S)
The description is as above. Format: binding. The following applies: 19S RP or 26S proteasomes incubated with b-AP15.
Source text: as §1, §2, §3

Data set [4] has as its system HCT-116 cells. As to the kind of experiment: Immunoblot of DNA damage markers (phosphorylated p53, H2AX). Format: cell-based. As to the method:
The turnover of many cell cycle regulatory proteins is controlled by the UPS including inhibitors of the cyclin-dependent kinases p21 Cip1, p27 Kip1 and the tumor suppressor p53 (4). Treatment with b-AP15 increased their levels in a dose dependent manner.
HCT-116 cells were treated with b-AP15 or doxorubicin (100 nM, as a positive control for genotoxic stress for 18 h) (FIG. 5). Cell lysates were immuno-blotted with antibodies for phosphorylated p53 and histone H2 Ax marker for DNA damage of for total levels of p53 and β-actin as loading controls.

The structures appear in SMILES notation.

For the compound `C=CC(=O)N1C/C(=C\c2ccc([N+](=O)[O-])cc2)C(=O)/C(=C/c2ccc([N+](=O)[O-])cc2)C1` [b-AP15], the “levels of human CK18 derived from FaDu tumors in the circulation” value in data set [1] (total CK18, p=0.01) was “significant increase”. Further, the “levels of caspase cleaved CK18 (CK18-Asp396) in circulation” value in data set [1] (compared with total levels) is on record as “increased moderately”. The “Ub-VS labelling of UCHL5” value in data set [2] is given as “abolished Ub-VS labelling”. For the same compound, in data set [3], the “Ub-VS labelling of USP14” value was “abolished Ub-VS labelling”. Also, the “level of DNA damage markers phosphorylated p53 (Ser 15) and H2AX (Ser 139)” value in data set [4] was “no increase was observed”.

The values are drawn from US9856511B2, “Protease deubiquitinating inhibitor screening” (priority 2011, dated 2018).
